Key:
SH-SY5Y cells [1] = assay: Cell protective activity against active oxygen (hydrogen peroxide), WST-1; format: cell-based, human; details: for apoptosis caused by active oxygen: 4 h pre-culture, then 300 mM H2O2 24 h, FIG. 4
Experimental: (§1) In order to identify whether methylparaben (MP) in cultured cells has cell protective effects against active oxygen, excitatory brain neurotransmitter, and α-synuclein, a cell protective activity test was performed. These materials, that is, the active oxygen, excitatory brain neurotransmitter, and α-synuclein has been indicated as a cause of extensive damage of nerve cells with respect to Parkinson's disease and other degenerative cerebral disorders.
(§2) Each well of a 96-well plate was provided with SH-SY5Y cells (5×10^3 cells; 10% FBS added DMEM medium) derived from human nerve cancer and cultured at 37° C. for 24 hours. After this, 1, 10 and 100 ng/ml of methylparaben (MP), 50 μM Vitamin E (Vit E) or 10 μM MK-801 was added and further cultured for 4 hours. Alternatively, as a control group, a culture solution without the addition of a drug was prepared. After culturing for 4 hours, 300 mM hydrogen peroxide solution (H2O2) generating active oxygen, 2 mM glutamate as an excitatory brain neurotransmitter, and 2 μM α-synuclein were further added and cultured for 24 hours. After culturing, the cultured solution was washed using phosphate buffered saline (PBS). 100 μl cultured solution provided with a 10% cell proliferation reagent (WST-1) was poured into an incubator at 37° C. and reacted for 1 hour under […], and then, absorbance was measured at 450 nm.

[2] = test system: Parkinson's disease model (6-OHDA) C57BL/6 mouse; assay: Passive avoidance test in Parkinson's disease model; format: in vivo; details: FIG. 10
Experimental: As a test device, a shuttle box having a size of 50×15×40 cm in width×length×height and being provided with an electrically conductive grid was used. The box was separated into two rooms, each having a size of 25×15 cm, by a connecting guillotine door (10×10 cm). Each room was illuminated using a 20 W light bulb. Noise was 60 dB or less and the test was performed in a room with very low illumination.
A mouse was placed in one room (A) of the two rooms separated by the door and the door was opened while turning on a light at 1500 lux. By doing this, the mouse looked around the room and entered the other room (B) without illumination. At this time, the door was operated to be automatically closed. By measuring a time taken from the opening of the door while turning on the light, to the closing of the door, a latency time was determined. The mouse may pass from room A to room B if the above process is repeated. If the mouse crossed from room A into room B within 20 seconds by repeating the above described process, a training process was deemed to be completed. […]
The mouse may develop a memory of a relation between the dark room and the foot-shock. […] After 1 day, a time taken from placing the above mouse in room A just before the mouse crossed into room B when a light turned on, was measured. […]

[3] = test system: Parkinson's disease model (6-OHDA) C57BL/6 mouse; assay: Observation of rotary movement (apomorphine-induced) in Parkinson's disease model; details: FIG. 8
[4] = Hydroxyl radical removal ability test (Fenton reaction, DMPO spin trap, ESR); format: biochemical
Experimental: In order to identify active oxygen removal ability of methylparaben (MP), Fenton reaction [H2O2+FeSO4] was performed to derive hydroxyl radicals. The derived hydroxyl radicals were entrapped by a nitrone spin trap (DMPO) and the entrapped DMPO-OH addition product was measured by an electron spin resonance (ESR) spectrometer. ESR spectrum was measured by reacting a reaction reagent [phosphate buffer solution (pH 7.4); 4.5 M DMPO 10 μl, 0.6 mM FeSO4 75 μl, 2.8 M H2O2 75 μl], methylparaben and vitamin C (VitC), then, using an ESR spectrometer (JES-FA, JEOL, Japan), and the measured results are shown in FIG. 2. In this regard, the ESR spectrometer carried out analysis using some parameters [magnetic field 340 mT, power 1.00 mW, frequency 9.19 GHz, amplitude modulation 0.2 mT, gain 200, scanning time 2 minutes, scanning width 10 mT, time constant 0.03 seconds, and temperature 20° C.].

[5] = test system: Parkinson's disease model (6-OHDA) C57BL/6 mouse; assay: Rotarod test in Parkinson's disease model; format: in vivo; details: FIG. 7
Experimental: In order to identify whether methylparaben (MP) can improve movement dysfunction of the Parkinson's disease model, a rotarod test was performed and the test results were evaluated on day 14 after the surgery of Parkinson's disease. The rotarod test refers to a test of measuring a residence time when a mouse was riding on a rotarod without falling off. A rotation speed of the rotarod was set to 10 rpm and the rotarod test was performed over 10 minutes after an adaptation time of 5 minutes. A riding time on the rotarod was repeatedly measured three times and a mean value was calculated, then, a final value was represented in the form of the mean value±mean error (n=6).

[6] = test system: Parkinson's disease model (6-OHDA) C57BL/6 mouse; assay: Y-shaped maze test in Parkinson's disease model; format: in vivo; details: FIG. 9
Experimental: An Y-shaped maze measurement device has three extending arms to form an alphabet ‘Y’ shape wherein each arm has a length of 35 cm, height of 9 cm, and width of 5 cm, and all arms are formed at the same angle. After positioning a test animal to face an end of one of the arms of the Y-shaped maze, the animal was allowed to freely go around the arms for 8 minutes. Motions of the animal were recorded and, when the animal with hind legs moved inside the arm, the animal was deemed to pass the arm (‘arm entry’). Movement of the animal was represented by the number of crossings (‘alternation’) and one alternation is defined to be when the animal continuously passes three arms. A quantity of spontaneous crossing movement is a percentage ratio of a practical alternation and a maximum possible alternation (that is, a total alternation −2).

SH-SY5Y cells [7] = assay: Cell protective activity against α-synuclein, WST-1; format: cell-based, human; details: for apoptosis caused by α-synuclein: 4 h pre-culture, then 2 μM α-synuclein 24 h, FIG. 6
Experimental: as §1, §2

[8] = established by the World Heath Organization (WHO); cited from earlier work
SH-SY5Y cells [9] = assay: Cell protective activity against excitatory brain neurotransmitter (glutamate), WST-1; format: cell-based, human; details: for apoptosis caused by excitatory brain neurotransmitter: 4 h pre-culture, then 2 mM glutamate 24 h, FIG. 5
Experimental: as §1, §2

[10] = 100 μg/kg i.p. everyday for 2 weeks
[11] = 200 μg/kg i.p. everyday for 2 weeks

In the case of COC(=O)c1ccc(O)cc1 [methylparaben], the “apoptosis caused by active oxygen” value (SH-SY5Y cells [1]; 10 ng/ml) was “significantly suppressed”, the “apoptosis caused by active oxygen” value (SH-SY5Y cells [1]; 100 ng/ml) was “significantly suppressed” and the “cell protective effect compared with positive control groups” value (SH-SY5Y cells [1]; 10 and 100 ng/ml, H2O2) was “substantially similar to 50 μM VitE or 10 μM MK-801”. For the same molecule, the “memory (latency time, passive avoidance)” value [2, 10] was “significantly improving”, the “memory (latency time, passive avoidance)” value [2, 11] was “significantly improving” and the “rotary movement dysfunction (number of revolutions after apomorphine)” value [3, 10] was “significantly improving”. For the same molecule, the “rotary movement dysfunction (number of revolutions after apomorphine)” value [3, 11] was “significantly improving”, the “amount of active oxygen (ESR, DMPO-OH)” value ([4]; adding methylparaben, Fenton reaction, pH 7.4, FIG. 2) was “reduced an amount of active oxygen” and the “active oxygen inhibitory ability compared with VitC” value ([4]; methylparaben 100 μg/ml) was “substantially similar to that of VitC”. For the same molecule, the “active oxygen inhibitory ability” value ([4]; methylparaben added, in relation to concentration, FIG. 3, n=4) was “active oxygen inhibitory ability was increased”, the “movement ability (riding time on rotarod)” value [5, 10] was “significantly improving” and the “movement ability (riding time on rotarod)” value [5, 11] was “significantly improving”. For the same molecule, the “memory (spontaneous alternation, Y-shaped maze)” value [6, 10] was “significantly improving”, the “memory (spontaneous alternation, Y-shaped maze)” value [6, 11] was “significantly improving” and the “apoptosis caused by α-synuclein” value (SH-SY5Y cells [7]; 10 ng/ml) was “significantly suppressed”. For the same molecule, the “apoptosis caused by α-synuclein” value (SH-SY5Y cells [7]; 100 ng/ml) was “significantly suppressed”, the “cell protective effect compared with positive control groups” value (SH-SY5Y cells [7]; 10 and 100 ng/ml, α-synuclein) was “substantially similar to 50 μM VitE or 10 μM MK-801” and the daily proper intake [8] was 10 mg/kg. The “apoptosis caused by excitatory brain neurotransmitter” value (SH-SY5Y cells [9]; 10 ng/ml) was “significantly suppressed”, the “apoptosis caused by excitatory brain neurotransmitter” value (SH-SY5Y cells [9]; 100 ng/ml) was “significantly suppressed” and the “cell protective effect compared with positive control groups” value (SH-SY5Y cells [9]; 10 and 100 ng/ml, glutamate) was “substantially similar to 50 μM VitE or 10 μM MK-801”.
In the case of CCOC(=O)c1ccc(O)cc1 [ethylparaben], the daily proper intake [8] is given as 10 mg/kg.

— patent US9040580B2, “Method for prevention or treatment of degenerative neurologial brain disorders” (B[…]., LTD., priority 2010, dated 2015)
